In ChEMBL document CHEMBL1151508, “Preparation and activities of 4-epi and 4-deoxy-4-amino analogs derived from 9-deoxo-8a-aza-8a-homoerythromycin A” (1994):
In brackets after ≈: the same amount, converted by molar mass.

Key:
Assay type in all cases: functional
[1] = system: Enterococcus faecalis; test: In vitro minimum inhibitory concentration against Enterococcus faecalis MB5407.
[2] = system: Escherichia coli; test: In vitro minimum inhibitory concentration against Escherichia coli MB2884.
[3] = system: Haemophilus influenzae; test: In vitro minimum inhibitory concentration against Haemophilus influenzae MB5363.
[4] = system: Klebsiella pneumoniae; test: In vitro minimum inhibitory concentration against Klebsiella pneumoniae MB4005.
[5] = system: Staphylococcus aureus; test: In vitro minimum inhibitory concentration against Staphylococcus aureus MB2865.
[6] = system: Streptococcus pneumoniae; test: In vitro minimum inhibitory concentration against Streptococcus pneumoniae CL2883.

| Compound | MIC [1] [µg/mL] | MIC [2] [µg/mL] | MIC [3] [µg/mL] | MIC [4] [µg/mL] | MIC [5] [µg/mL] | MIC [6] [µg/mL] |
| --- | --- | --- | --- | --- | --- | --- |
| CC[C@H]1OC(=O)[C@H](C)[C@@H](O[C@H]2C[C@@](C)(OC)[C@@H](N(C)C)[C@H](C)O2)[C@H](C)[C@@H](O[C@@H]2O[C@H](C)C[C@H](N(C)C)[C@H]2OC(=O)OCC2c3ccccc3-c3ccccc32)[C@](C)(O)C[C@@H](C)N(C)C[C@H](C)[C@@H](O)[C@]1(C)O | 8 (≈ 8.01 µM) | 1 (≈ 1 µM) | 2 (≈ 2 µM) | 2 (≈ 2 µM) | 8 (≈ 8.01 µM) | 0.5 (≈ 0.501 µM) |
| CC[C@H]1OC(=O)[C@H](C)[C@@H](O[C@H]2C[C@@](C)(OC)[C@@H](NC(C)=O)[C@H](C)O2)[C@H](C)[C@@H](O[C@@H]2O[C@H](C)C[C@H](N(C)C)[C@H]2OC(=O)OCC2c3ccccc3-c3ccccc32)[C@](C)(O)C[C@@H](C)N(C)C[C@H](C)[C@@H](O)[C@]1(C)O | 8 (≈ 7.9 µM) | 2 (≈ 1.98 µM) | 8 (≈ 7.9 µM) | 2 (≈ 1.98 µM) | 2 (≈ 1.98 µM) | 0.25 (≈ 0.247 µM) |
| CC[C@H]1OC(=O)[C@H](C)[C@@H](O[C@H]2C[C@@](C)(OC)[C@H](N(C)C)[C@H](C)O2)[C@H](C)[C@@H](O[C@@H]2O[C@H](C)C[C@H](N(C)C)[C@H]2OC(=O)OCC2c3ccccc3-c3ccccc32)[C@](C)(O)C[C@@H](C)N(C)C[C@H](C)[C@@H](O)[C@]1(C)O | 16 (≈ 16 µM) | 0.5 (≈ 0.501 µM) | 2 (≈ 2 µM) | 2 (≈ 2 µM) | 32 (≈ 32.1 µM) | 0.5 (≈ 0.501 µM) |
| C=CCN1C[C@H](C)[C@@H](O)[C@](C)(O)[C@@H](CC)OC(=O)[C@H](C)[C@@H](O[C@H]2C[C@@](C)(OC)C(N)[C@H](C)O2)[C@H](C)[C@@H](O[C@@H]2O[C@H](C)C[C@H](N(C)C)[C@H]2O)[C@](C)(O)C[C@H]1C (some centres undefined) | 4 (≈ 5.17 µM) | 0.5 (≈ 0.646 µM) | 0.5 (≈ 0.646 µM) | 0.25 (≈ 0.323 µM) | 2 (≈ 2.58 µM) | 0.06 (≈ 0.0775 µM) |
| CC[C@H]1OC(=O)[C@H](C)[C@@H](O[C@H]2C[C@@](C)(OC)[C@H](NC(C)=O)[C@H](C)O2)[C@H](C)[C@@H](O[C@@H]2O[C@H](C)C[C@H](N(C)C)[C@H]2OC(=O)OCC2c3ccccc3-c3ccccc32)[C@](C)(O)C[C@@H](C)N(C)C[C@H](C)[C@@H](O)[C@]1(C)O | 8 (≈ 7.9 µM) | 1 (≈ 0.988 µM) | 4 (≈ 3.95 µM) | 4 (≈ 3.95 µM) | 16 (≈ 15.8 µM) | 0.5 (≈ 0.494 µM) |
| C=CCN1C[C@H](C)[C@@H](O)[C@](C)(O)[C@@H](CC)OC(=O)[C@H](C)[C@@H](O[C@H]2C[C@@](C)(OC)[C@@H](N)[C@H](C)O2)[C@H](C)[C@@H](O[C@@H]2O[C@H](C)C[C@H](N(C)C)[C@H]2OC(=O)OCC2c3ccccc3-c3ccccc32)[C@](C)(O)C[C@H]1C | 4 (≈ 4.01 µM) | 0.25 (≈ 0.251 µM) | 1 (≈ 1 µM) | 0.13 (≈ 0.13 µM) | 1 (≈ 1 µM) | 0.03 (≈ 0.0301 µM) |
| CC[C@H]1OC(=O)[C@H](C)[C@@H](O[C@H]2C[C@@](C)(OC)[C@H](n3cccc3)[C@H](C)O2)[C@H](C)[C@@H](O[C@@H]2O[C@H](C)C[C@H](N(C)C)[C@H]2OC(=O)OCC2c3ccccc3-c3ccccc32)[C@](C)(O)C[C@@H](C)N(C)C[C@H](C)[C@@H](O)[C@]1(C)O | 4 (≈ 3.92 µM) | 4 (≈ 3.92 µM) | 16 (≈ 15.7 µM) | 8 (≈ 7.84 µM) | 8 (≈ 7.84 µM) | 0.25 (≈ 0.245 µM) |
| CC[C@H]1OC(=O)[C@H](C)[C@@H](O[C@H]2C[C@@](C)(OC)[C@@H](O)[C@H](C)O2)[C@H](C)[C@@H](O[C@@H]2O[C@H](C)C[C@H](N(C)C)[C@H]2O)[C@](C)(O)C[C@@H](C)CN(C)[C@H](C)[C@@H](O)[C@]1(C)O [AZITHROMYCIN] | 4 (≈ 5.34 µM) | 1 (≈ 1.34 µM) | 0.5 (≈ 0.668 µM) | 2 (≈ 2.67 µM) | 1 (≈ 1.34 µM) | 0.03 (≈ 0.0401 µM) |
| CC[C@H]1OC(=O)[C@H](C)[C@@H](O[C@H]2C[C@@](C)(OC)[C@@H](O)[C@H](C)O2)[C@H](C)[C@@H](O[C@@H]2O[C@H](C)C[C@H](N(C)C)[C@H]2O)[C@](C)(O)C[C@@H](C)C(=O)[C@H](C)[C@@H](O)[C@]1(C)O [ERYTHROMYCIN] | 1 (≈ 1.36 µM) | 32 (≈ 43.6 µM) | 2 (≈ 2.73 µM) | 32 (≈ 43.6 µM) | 0.25 (≈ 0.341 µM) | 0.02 (≈ 0.0273 µM) |

Further molecules by falling MIC [1], results first:

| MIC [1] [µg/mL] | MIC [2] [µg/mL] | MIC [3] [µg/mL] | MIC [4] [µg/mL] | MIC [5] [µg/mL] | MIC [6] [µg/mL] | Compound |
| --- | --- | --- | --- | --- | --- | --- |
| 4 (≈ 5.35 µM) | 0.25 (≈ 0.334 µM) | 1 (≈ 1.34 µM) | 0.13 (≈ 0.174 µM) | 2 (≈ 2.67 µM) | 0.03 (≈ 0.0401 µM) | CC[C@H]1OC(=O)[C@H](C)[C@@H](O[C@H]2C[C@@](C)(OC)C(N)[C@H](C)O2)[C@H](C)[C@@H](O[C@@H]2O[C@H](C)C[C@H](N(C)C)[C@H]2O)[C@](C)(O)C[C@@H](C)N(C)C[C@H](C)[C@@H](O)[C@]1(C)O (some centres undefined) |
| 2 (≈ 2.58 µM) | 0.5 (≈ 0.644 µM) | 0.5 (≈ 0.644 µM) | 0.5 (≈ 0.644 µM) | 1 (≈ 1.29 µM) | 0.06 (≈ 0.0773 µM) | CCCN1C[C@H](C)[C@@H](O)[C@](C)(O)[C@@H](CC)OC(=O)[C@H](C)[C@@H](O[C@H]2C[C@@](C)(OC)C(N)[C@H](C)O2)[C@H](C)[C@@H](O[C@@H]2O[C@H](C)C[C@H](N(C)C)[C@H]2O)[C@](C)(O)C[C@H]1C (some centres undefined) |
| 2 (≈ 2.06 µM) | 0.13 (≈ 0.134 µM) | 0.25 (≈ 0.258 µM) | 0.13 (≈ 0.134 µM) | 1 (≈ 1.03 µM) | 0.06 (≈ 0.0618 µM) | CC[C@H]1OC(=O)[C@H](C)[C@@H](O[C@H]2C[C@@](C)(OC)[C@@H](N)[C@H](C)O2)[C@H](C)[C@@H](O[C@@H]2O[C@H](C)C[C@H](N(C)C)[C@H]2OC(=O)OCC2c3ccccc3-c3ccccc32)[C@](C)(O)C[C@@H](C)N(C)C[C@H](C)[C@@H](O)[C@]1(C)O |
| 2 (≈ 1.96 µM) | 4 (≈ 3.92 µM) | 4 (≈ 3.92 µM) | 4 (≈ 3.92 µM) | 4 (≈ 3.92 µM) | 0.13 (≈ 0.127 µM) | CC[C@H]1OC(=O)[C@H](C)[C@@H](O[C@H]2C[C@@](C)(OC)[C@@H](n3cccc3)[C@H](C)O2)[C@H](C)[C@@H](O[C@@H]2O[C@H](C)C[C@H](N(C)C)[C@H]2OC(=O)OCC2c3ccccc3-c3ccccc32)[C@](C)(O)C[C@@H](C)N(C)C[C@H](C)[C@@H](O)[C@]1(C)O |
| 2 (≈ 2.06 µM) | 0.25 (≈ 0.258 µM) | 0.5 (≈ 0.515 µM) | 0.25 (≈ 0.258 µM) | 1 (≈ 1.03 µM) | 0.06 (≈ 0.0618 µM) | CC[C@H]1OC(=O)[C@H](C)[C@@H](O[C@H]2C[C@@](C)(OC)[C@H](N)[C@H](C)O2)[C@H](C)[C@@H](O[C@@H]2O[C@H](C)C[C@H](N(C)C)[C@H]2OC(=O)OCC2c3ccccc3-c3ccccc32)[C@](C)(O)C[C@@H](C)N(C)C[C@H](C)[C@@H](O)[C@]1(C)O |
| 2 (≈ 2 µM) | 0.25 (≈ 0.249 µM) | 1 (≈ 0.998 µM) | 0.13 (≈ 0.13 µM) | 0.5 (≈ 0.499 µM) | 0.03 (≈ 0.0299 µM) | CC[C@H]1OC(=O)[C@H](C)[C@@H](O[C@H]2C[C@@](C)(OC)[C@@H](N)[C@H](C)O2)[C@H](C)[C@@H](O[C@@H]2O[C@H](C)C[C@H](N(C)C)[C@H]2OC(=O)OCC2c3ccccc3-c3ccccc32)[C@](C)(O)C[C@@H](C)N(CCF)C[C@H](C)[C@@H](O)[C@]1(C)O |
| 2 (≈ 2.01 µM) | 0.5 (≈ 0.502 µM) | 0.5 (≈ 0.502 µM) | 0.25 (≈ 0.251 µM) | 1 (≈ 1 µM) | 0.03 (≈ 0.0301 µM) | C=CCN1C[C@H](C)[C@@H](O)[C@](C)(O)[C@@H](CC)OC(=O)[C@H](C)[C@@H](O[C@H]2C[C@@](C)(OC)[C@H](N)[C@H](C)O2)[C@H](C)[C@@H](O[C@@H]2O[C@H](C)C[C@H](N(C)C)[C@H]2OC(=O)OCC2c3ccccc3-c3ccccc32)[C@](C)(O)C[C@H]1C |
| 2 (≈ 2.67 µM) | 1 (≈ 1.34 µM) | 1 (≈ 1.34 µM) | 1 (≈ 1.34 µM) | 0.5 (≈ 0.668 µM) | 0.03 (≈ 0.0401 µM) | CC[C@H]1OC(=O)[C@H](C)[C@@H](O[C@H]2C[C@@](C)(OC)[C@@H](O)[C@H](C)O2)[C@H](C)[C@@H](O[C@@H]2O[C@H](C)C[C@H](N(C)C)[C@H]2O)[C@](C)(O)C[C@@H](C)N(C)C[C@H](C)[C@@H](O)[C@]1(C)O [L-701677] |
| 1 (≈ 1.34 µM) | 1 (≈ 1.34 µM) | 1 (≈ 1.34 µM) | 4 (≈ 5.34 µM) | 0.5 (≈ 0.668 µM) | 0.06 (≈ 0.0801 µM) | CC[C@H]1OC(=O)[C@H](C)[C@@H](O[C@H]2C[C@@](C)(OC)[C@H](O)[C@H](C)O2)[C@H](C)[C@@H](O[C@@H]2O[C@H](C)C[C@H](N(C)C)[C@H]2O)[C@](C)(O)C[C@@H](C)N(C)C[C@H](C)[C@@H](O)[C@]1(C)O |
| 1 (≈ 0.998 µM) | 0.25 (≈ 0.249 µM) | 0.5 (≈ 0.499 µM) | 0.13 (≈ 0.13 µM) | 0.25 (≈ 0.249 µM) | 0.03 (≈ 0.0299 µM) | CC[C@H]1OC(=O)[C@H](C)[C@@H](O[C@H]2C[C@@](C)(OC)[C@H](N)[C@H](C)O2)[C@H](C)[C@@H](O[C@@H]2O[C@H](C)C[C@H](N(C)C)[C@H]2OC(=O)OCC2c3ccccc3-c3ccccc32)[C@](C)(O)C[C@@H](C)N(CCF)C[C@H](C)[C@@H](O)[C@]1(C)O |
